The text below walks through data of patent US10746747B2, “Method for quantitative characterization of substances with regard to their properties of binding to amyloid-β (Aβ) conformers” (FORSCHUNGSZENTRUM JUELICH GMBH, priority 2013, dated 2020).

Where two headings read alike, the source gives them in different places. Square brackets hold non-standard residues; d marks the D form. Peptide text beside a SMILES is read from it.

Assay [1] deals with T1, Aβ(1-42) fibrils (Homo sapiens, UniProt P05067).
T1 construct: oligomers and fibrils being composed of a 1:10 ratio of biotinylated Aβ(1-42) to non-biotinylated Aβ(1-42)
T1 sequence (P05067 672-713 limits assumed): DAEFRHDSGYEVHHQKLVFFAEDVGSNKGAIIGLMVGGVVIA
The assay is described as follows: SPR single-cycle kinetics on immobilized Aβ(1-42) fibrils. The conditions noted are these: fibrils by density gradient centrifugation, 1324 RU immobilized, binding model with three binding sites. As for the experimental part: (§1) The results can be obtained by surface plasmon resonance or by biolayer interferometry. In the case of surface plasmon resonance, regeneration steps between individual analyte injections are circumvented by carrying out the interaction studies using the “single-cycle kinetics” measurement method. Thus, advantageously, different analyte concentrations are injected directly one after the other.
(§2) In order to ensure a homogeneous sample preparation, monomers and oligomers were separated by means of size exclusion chromatography (SEC), and fibrils were separated from other forms by means of density gradient centrifugation. The immobilization on streptavidin-loaded SPR sensor surfaces took place by using biotinylated Aβ(1-42), oligomers and fibrils being composed of a 1:10 ratio of biotinylated Aβ(1-42) to non-biotinylated Aβ(1-42).
(§3) The lyophilized samples of N-terminally biotinylated Aβ(1-42) and non-biotinylated Aβ(1-42) were each dissolved separately from one another in 100% hexafluoroisopropanol (HIFP) and incubated overnight at room temperature. The volumes required for a 1:10 ratio were then combined and the HFIP was evaporated off using a concentrator.
For the preparation of fibrillar Aβ(1-42), the pellets obtained after the evaporation were dissolved in 10 mM sodium phosphate buffer pH 7.4 and incubated for 24 hours at 25° C. and at 600 rpm.
(§4) The density gradient was prepared by subsequently layering over the density gradient solution (iodixanol diluted in 10 mM sodium phosphate buffer pH 7.4) in concentrations of 50% (260 μl), 40% (260 μl), 30% (260 μl), 20% (260 μl), 10% (260 μl) and 5% (100 μl) (v/v). The samples were then pipetted onto the density gradient and centrifugation was carried out for 3 hours at 4° C. and 259000 g. A total of 14 fractions, each of 140 μl, was then removed from the density gradient from top to bottom. Monomers are found in the first fraction, oligomers are found in fractions 5 and 6, and fibrils are found typically in fractions 11-13.
The monomers are biotinylated C-terminally, unlike the oligomers and fibrils (N-terminally). The response units (Y-axis) were plotted against the time in seconds (X-axis), wherein the black curves represent the double-referenced experimental data and the gray superposed curves represent the fits. For characterizing the scFv-IC16, therefore, measurements using biotinylated Aβ(1-42) are possible; C-terminally biotinylated Aβ(1-42) was used here. For fitting to monomers, a 1:1 Langmuir binding model was used and oligomers and fibrils were fitted to a heterogeneous binding model which takes account of two different binding sites on the sensor surface. It can clearly be seen that the fits coincide very well with the experimental data. This is direct evidence of the successful immobilization of the various forms and the respectively homogeneous surface.
The index a1 and d1 refer respectively to the association and dissociation rate of the antibody fragment scFv-IC16 on the respective exposed epitope of the conformer. The index a2 and d2, on the other hand, refer respectively to the association and dissociation rate of the antibody fragment scFv-IC16 on discontinuous epitopes of the respective conformer. Analogously, the indices D1 and D2 refer to the dissociation constants on the continuous and discontinuous epitope.
The D-enantiomeric peptide D7 was identified by a mirror image […] selection and analyzed using the method described above with regard to the binding properties, by way of example as a substance to be tested. In a manner differing from the measurement data in FIG. 3, in this case, all the different Aβ(1-42) conformers (monomers, oligomers and fibrils) were prepared by means of density gradient centrifugation and immobilized in various quantities on the sensor surface. In the case of the monomers, 1423 RU were immobilized, in the case of the oligomers 1356 RU, and in the case of the fibrils 1324 RU. […]

In assay [2] the target is T2, Aβ(1-42) monomers (Homo sapiens, UniProt P05067).
T2 construct: sensor surfaces containing immobilized Aβ(1-42) monomers, oligomers and fibrils
T2 sequence (P05067 672-713 limits assumed): as above
Nature of the assay: SPR single-cycle kinetics on immobilized Aβ(1-42) monomers. To be noted: monomers by density gradient centrifugation, 1423 RU immobilized, heterogeneous binding model, two sites. As for the experimental part:
as §1, §2, §3
(§5) For the preparation of monomeric and oligomeric Aβ(1-42), the previously obtained pellet was taken up in the size exclusion chromatography buffer (50 mM sodium phosphate buffer, 150 mM NaCl, 0.6% Tween 20, pH 7.4) and briefly centrifuged for 30 seconds at 15500 g in order to sediment insoluble material.
(§6) The supernatant after the centrifugation step at the end of the preparation of monomeric and oligomeric Aβ(1-42) was then applied directly to a Superdex 75 10/300 GL (GE Healthcare) column for chromatographic separation. The flow rate during the elution with size exclusion chromatography buffer was 0.8 ml/min. Monomers eluted at ˜14 ml, whereas oligomers eluted at ˜8 ml.
as §4
(§7) The monomers are biotinylated C-terminally, unlike the oligomers and fibrils (N-terminally). The response units (Y-axis) were plotted against the time in seconds (X-axis), wherein the black curves represent the double-referenced experimental data and the gray superposed curves represent the fits. […]

Assay [3] deals with T3, Aβ(1-42) oligomers (Homo sapiens, UniProt P05067).
T3 construct: oligomers and fibrils being composed of a 1:10 ratio of biotinylated Aβ(1-42) to non-biotinylated Aβ(1-42)
T3 sequence (P05067 672-713 limits assumed): as above
Nature of the assay: SPR single-cycle kinetics on immobilized Aβ(1-42) oligomers. The conditions noted are these: oligomers by density gradient centrifugation, 1356 RU immobilized, heterogeneous binding model, two sites. As for the experimental part: as §1, §2, §3, §5, §6, §4, §7

Where [4] appears, read: sub-reaction 1, read-out: ka1 association rate.
Setting [5] is: sub-reaction 1, read-out: kd1 dissociation rate.
Where [6] appears, read: sub-reaction 2, read-out: ka2 association rate.
The mark [7] stands for this setting: sub-reaction 2, read-out: kd2 dissociation rate.

For the molecule `CSCC[C@@H](NC(=O)[C@@H](Cc1c[nH]cn1)NC(=O)[C@@H](Cc1ccc(O)cc1)NC(=O)[C@H](NC(=O)[C@@H](Cc1ccc(O)cc1)NC(=O)[C@@H](Cc1ccc(O)cc1)NC(=O)[C@@H](CCC(=O)O)NC(=O)[C@@H](Cc1ccccc1)NC(=O)[C@@H](CCCNC(=N)N)NC(=O)[C@H](NC(=O)[C@H](N)Cc1c[nH]cn1)[C@H](C)O)C(C)C)C(=O)N[C@H](CO)C(=O)O` [D7, htrfeyyvyhms] (H-[dH][dT][dR][dF][dE][dY][dY][dV][dY][dH][dM][dS]-OH; N-terminus and C-terminus assumed), the kon in assay [1] (setting [4]) worked out at 18200 M⁻¹ s⁻¹; in assay [1] (setting [6]), 1320 M⁻¹ s⁻¹; in assay [1] (sub-reaction 3, read-out: ka3 association rate), 32300 M⁻¹ s⁻¹; in assay [2] (setting [4]) it was 2420 M⁻¹ s⁻¹; in assay [2] (setting [6]), 100000 M⁻¹ s⁻¹; in assay [3] (setting [4]) it was 4520 M⁻¹ s⁻¹. For the same molecule, in assay [3] (setting [6]), the kon worked out at 66200 M⁻¹ s⁻¹. In addition, the koff in assay [1] (setting [5]) turned out to be 0.262 s⁻¹; in assay [1] (setting [7]), 0.000193 s⁻¹; in assay [1] (sub-reaction 3, read-out: kd3 dissociation rate), 0.0125 s⁻¹; in assay [2] (setting [5]), 0.000364 s⁻¹; in assay [2] (setting [7]), 0.00928 s⁻¹; in assay [3] (setting [5]), 0.000402 s⁻¹. Besides, the koff in assay [3] (setting [7]) was 0.0153 s⁻¹.
